24 compounds from PubChem BioAssay AID330 (DTP/NCI, 2004) can be followed below.

In the assay the test system is P388 leukemia ip, CD2F1 mice, survival T/C. Description: NCI In Vivo Anticancer Drug Screen. Data for tumor model P388 Leukemia (intraperitoneal) in CD2F1 (CDF1) mice. The note with it: endpoint: median survival time, higher = longer survival. The method, boiled down:
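Mice carrying the transplanted tumor received test compound or vehicle. Survival was recorded in each group, and the value is the treated-group measurement divided by that of the vehicle-treated control group.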

Setting [1] is: dose: 50.0 mg/kg/injection, schedule: Q01DX009 (ip), vehicle: saline.
The mark [2] stands for this setting: dose: 100.0 mg/kg/injection, schedule: Q01DX009 (ip), vehicle: saline.
The mark [3] stands for this setting: dose: 200.0 mg/kg/injection, schedule: Q01DX009 (ip), vehicle: saline.
[4] abbreviates: dose: 25.0 mg/kg/injection, schedule: Q01DX009 (ip), vehicle: Klucel (hydroxypropylcellulose) (HPC).
The mark [5] stands for this setting: dose: 50.0 mg/kg/injection, schedule: Q01DX009 (ip), vehicle: Klucel (hydroxypropylcellulose) (HPC).
The mark [6] stands for this setting: dose: 12.5 mg/kg/injection, schedule: Q01DX005 (ip), vehicle: Klucel (hydroxypropylcellulose) (HPC).
[7] abbreviates: dose: 25.0 mg/kg/injection, schedule: Q01DX005 (ip), vehicle: Klucel (hydroxypropylcellulose) (HPC).
Setting [8] is: dose: 50.0 mg/kg/injection, schedule: Q01DX005 (ip), vehicle: Klucel (hydroxypropylcellulose) (HPC).
The mark [9] stands for this setting: dose: 100.0 mg/kg/injection, schedule: Q01DX009 (ip), vehicle: Klucel (hydroxypropylcellulose) (HPC).
Setting [10] is: dose: 100.0 mg/kg/injection, schedule: Q01DX001 (ip), vehicle: Klucel (hydroxypropylcellulose) (HPC).
Setting [11] is: dose: 6.25 mg/kg/injection, schedule: Q01DX009 (ip), vehicle: saline.
Where [12] appears, read: dose: 50.0 mg/kg/injection, schedule: Q01DX009 (ip), vehicle: suspension in saline.

Several values for one entry are separate records, joined by “and”; a condition that tells them apart may be missing. Identical values can stand only once. Inconclusive results and toxic doses are left out.

On to `CCN(Cc1c(C)[nH]c2ccc(N(C)C)cc2c1=O)Cc1c(C)[nH]c2ccc(N(C)C)cc2c1=O`, for which the T/C under setting [1] is 101 % of control, the T/C under setting [2] is 101 % of control and the T/C under setting [3] is 106 % of control.

For the compound `N=C(N)SCc1ccc([N+](=O)[O-])cc1`, the T/C was 102 % of control under setting [4] and 107 % of control under setting [5].

As to `COc1cc2c3c(c1OC)C(=O)C[C@@H]1CCCN(CC2)[C@H]31`, the T/C is 99 % of control under setting [6] and 98 % of control under setting [7].

In the case of `COc1ccc(C(O)c2cc(C(F)(F)F)cc(C(F)(F)F)c2)cc1OC` (configuration not stated), the T/C by setting is: under setting [8], 100 % of control; (dose: 100.0 mg/kg/injection, schedule: Q01DX005 (ip), vehicle: Klucel (hydroxypropylcellulose) (HPC)) 92 % of control; (dose: 200.0 mg/kg/injection, schedule: Q01DX005 (ip), vehicle: Klucel (hydroxypropylcellulose) (HPC)) 91 % of control.

With `Nc1nc2ccc(CNc3ccc(C(=O)NC(CC(=O)O)C(=O)O)cc3)cc2c(=O)[nH]1` (configuration not stated), the T/C (dose: 12.5 mg/kg/injection, schedule: Q01DX009 (ip), vehicle: Klucel (hydroxypropylcellulose) (HPC)) was 100 % of control; the T/C under setting [4] was 96 % of control; the T/C under setting [5] is 99 % of control and 103 % of control; the T/C under setting [9] is 116 % of control.

Regarding `O=P(c1ccccc1)(c1ccccc1)c1ccccc1.O=P(c1ccccc1)(c1ccccc1)c1ccccc1.O=S(=O)(O)O.[Fe]`, the T/C is, setting by setting: (dose: 100.0 mg/kg/injection, schedule: Q04DX003 (ip), vehicle: Klucel (hydroxypropylcellulose) (HPC)) 93 % of control; (dose: 200.0 mg/kg/injection, schedule: Q04DX003 (ip), vehicle: Klucel (hydroxypropylcellulose) (HPC)) 89 % of control.

Consider `CNc1cc(=O)[nH]c(-c2ccccc2)n1`, for which the T/C is 89 % of control (dose: 45.0 mg/kg/injection, schedule: Q01DX009 (ip), vehicle: saline with Tween-80); 97 % of control (dose: 90.0 mg/kg/injection, schedule: Q01DX009 (ip), vehicle: saline with Tween-80); 105 % of control (dose: 180.0 mg/kg/injection, schedule: Q01DX009 (ip), vehicle: saline with Tween-80).

Turning to `Nc1c(-c2ccc(C3=NCCN3)cc2)[nH]c2cc(C3=NCCN3)ccc12`, the T/C (dose: 6.25 mg/kg/injection, schedule: Q01DX005 (ip), vehicle: Klucel (hydroxypropylcellulose) (HPC)) was 100 % of control; the T/C under setting [6] was 118 % of control; the T/C under setting [8] is 196 % of control.

In the case of `O=C1CC(C2(c3ccccc3)SCCCS2)CO1` (configuration not stated), the T/C was 99 % of control under setting [10]; 98 % of control (dose: 200.0 mg/kg/injection, schedule: Q01DX001 (ip), vehicle: Klucel (hydroxypropylcellulose) (HPC)); 100 % of control (dose: 400.0 mg/kg/injection, schedule: Q01DX001 (ip), vehicle: Klucel (hydroxypropylcellulose) (HPC)).

For `Cc1ncc(CNC(=O)N(CCCl)N=O)c(N)n1`, the T/C reads like this: (dose: 10.0 mg/kg/injection, schedule: Q01DX001 (ip), vehicle: saline) 191 % of control; (dose: 20.0 mg/kg/injection, schedule: Q01DX001 (ip), vehicle: saline) 260 % of control and 336 % of control; (dose: 30.0 mg/kg/injection, schedule: Q01DX001 (ip), vehicle: saline) 517 % of control; (dose: 40.0 mg/kg/injection, schedule: Q01DX001 (ip), vehicle: saline) 120 % of control and 260 % of control.

With `O=C(NC(=O)c1ccccc1Cl)Nc1ccc(C(O)(C(F)(F)F)C(F)(F)F)cc1`, the T/C runs as follows: (dose: 50.0 mg/kg/injection, schedule: Q01DX005 (ip), vehicle: saline with Tween-80) 104 % of control; (dose: 100.0 mg/kg/injection, schedule: Q01DX005 (ip), vehicle: saline with Tween-80) 102 % of control; (dose: 200.0 mg/kg/injection, schedule: Q01DX005 (ip), vehicle: saline with Tween-80) 100 % of control.

In the case of `CC(=O)Nc1ccc(/C=C/c2ccc(N=C=S)cc2S(=O)(=O)O)c(S(=O)(=O)O)c1`, the T/C was 110 % of control (dose: 50.0 mg/kg/injection, schedule: Q01DX009 (ip), vehicle: saline with Tween-80) and 110 % of control (dose: 100.0 mg/kg/injection, schedule: Q01DX009 (ip), vehicle: saline with Tween-80).

As to `[Br][Pt+2][Br].[NH-]C1CCCC1[NH-]` (configuration not stated), the T/C is, setting by setting: (dose: 12.5 mg/kg/injection, schedule: Q04DX002 (ip), vehicle: saline with Tween-80) 164 % of control; (dose: 25.0 mg/kg/injection, schedule: Q04DX002 (ip), vehicle: saline with Tween-80) 197 % of control and 174 % of control; (dose: 50.0 mg/kg/injection, schedule: Q04DX002 (ip), vehicle: saline with Tween-80) 93 % of control and 212 % of control.

On to `COC(=O)C1=C(C)NC(=O)NC1c1ccc(N(CCCl)CCCl)c(OC)c1` (configuration not stated), for which the T/C runs as follows: (dose: 1.56 mg/kg/injection, schedule: Q01DX009 (ip), vehicle: saline with Tween-80) 160 % of control; (dose: 3.13 mg/kg/injection, schedule: Q01DX009 (ip), vehicle: saline with Tween-80) 186 % of control; (dose: 6.25 mg/kg/injection, schedule: Q01DX009 (ip), vehicle: saline with Tween-80) 117 % of control; (dose: 12.5 mg/kg/injection, schedule: Q01DX009 (ip), vehicle: saline with Tween-80) 96 % of control.

On to `CC(=O)NS(=O)(=O)c1ccc(N=CC2C(=O)N(c3ccccc3)N(c3ccccc3)C2=O)cc1`, for which the T/C is 86 % of control (dose: 25.0 mg/kg/injection, schedule: Q01DX001 (ip), vehicle: Klucel (hydroxypropylcellulose) (HPC)); 91 % of control (dose: 50.0 mg/kg/injection, schedule: Q01DX001 (ip), vehicle: Klucel (hydroxypropylcellulose) (HPC)); 92 % of control under setting [10].

With `N#Cc1ncc(C[n+]2ccccc2)nc1N`, the T/C runs as follows: (dose: 10.0 mg/kg/injection, schedule: Q01DX009 (ip), vehicle: saline) 109 % of control; (dose: 20.0 mg/kg/injection, schedule: Q01DX009 (ip), vehicle: saline) 107 % of control; (dose: 40.0 mg/kg/injection, schedule: Q01DX009 (ip), vehicle: saline) 100 % of control.

For the compound `O=C1Nc2ccccc2SC1c1ccccc1Cl` (configuration not stated), the T/C is 96 % of control under setting [11]; 99 % of control (dose: 12.5 mg/kg/injection, schedule: Q01DX009 (ip), vehicle: saline); 105 % of control (dose: 25.0 mg/kg/injection, schedule: Q01DX009 (ip), vehicle: saline); 106 % of control and 93 % of control under setting [1]; 102 % of control under setting [2]; 105 % of control under setting [3]. In addition, the T/C (dose: 400.0 mg/kg/injection, schedule: Q01DX009 (ip), vehicle: saline) was 113 % of control.

As for `O=Cc1ccccc1-c1ccccc1C=O`, the T/C runs as follows: (dose: 100.0 mg/kg/injection, schedule: Q04DX002 (ip), vehicle: saline with Tween-80) 106 % of control; (dose: 200.0 mg/kg/injection, schedule: Q04DX002 (ip), vehicle: saline with Tween-80) 103 % of control.

As for `CCN(CC)c1ccc(C(=N)c2ccc(N(CC)CC)cc2)cc1`, the T/C is, setting by setting: under setting [6], 101 % of control; under setting [7], 99 % of control; under setting [8], 89 % of control and 90 % of control.

Regarding `CC(C)CC(=O)Cc1nc2n(c1O)C(=N)N=N2`, the T/C (dose: 60.0 mg/kg/injection, schedule: Q01DX005 (ip), vehicle: saline) is 105 % of control; the T/C (dose: 120.0 mg/kg/injection, schedule: Q01DX005 (ip), vehicle: saline) was 98 % of control; the T/C (dose: 240.0 mg/kg/injection, schedule: Q01DX005 (ip), vehicle: saline) was 110 % of control.

With `O=[N+]([O-])c1ccc(CS(=O)(=O)C(Cl)(Cl)Cl)o1`, the T/C under setting [11] is 108 % of control and 112 % of control and 87 % of control; the T/C under setting [12] is 86 % of control; the T/C (dose: 200.0 mg/kg/injection, schedule: Q01DX009 (ip), vehicle: suspension in saline) was 86 % of control.

Turning to `CCCCCCCC[As](CCCCCCCC)SC1OC(COC(C)=O)C(OC(C)=O)C(OC(C)=O)C1OC(C)=O` (configuration not stated), the T/C under setting [5] was 102 % of control and the T/C under setting [9] was 90 % of control.

As for `O=C1OC(c2cccc(Cl)c2)=N/C1=C\C=C/c1ccccc1`, the T/C by setting is: under setting [12], 93 % of control; (dose: 100.0 mg/kg/injection, schedule: Q01DX009 (ip), vehicle: suspension in saline) 93 % of control.

Regarding `C=CCC(CCCCCCCCCCCCC)C(=O)O` (configuration not stated), the T/C was 104 % of control (dose: 100.0 mg/kg/injection, schedule: Q01DX001 (ip), vehicle: saline with Tween-80); 95 % of control (dose: 200.0 mg/kg/injection, schedule: Q01DX001 (ip), vehicle: saline with Tween-80); 91 % of control (dose: 400.0 mg/kg/injection, schedule: Q01DX001 (ip), vehicle: saline with Tween-80).
